Activity calls are given as the source filed them. No cut-off for these calls is given here.
Key:
COLO 205 = assay: Growth inhibition of human COLO205 cells at 10 uM after 48 hrs by sulforhodamine B assay; type: functional
SW-620 = assay: Growth inhibition of human SW620 cells at 10 uM after 48 hrs by sulforhodamine B assay; type: functional
TK-10 = assay: Growth inhibition of human TK10 cells at 10 uM after 48 hrs by sulforhodamine B assay; type: functional
BT-549 = assay: Growth inhibition of human BT549 cells at 10 uM after 48 hrs by sulforhodamine B assay; type: functional
Carbonic anhydrase 9 = Carbonic anhydrase 9 (Homo sapiens, UniProt Q16790); assay: Inhibition of human carbonic anhydrase 9 after 15 mins by stopped flow CO2 hydration assay
CAKI-1 = assay: Growth inhibition of human CAKI-1 cells at 10 uM after 48 hrs by sulforhodamine B assay; type: functional; conditions: CAKI-1, 48 h, read-out: GI
NCI-H226 = assay: Growth inhibition of human NCI-H226 cells at 10 uM after 48 hrs by sulforhodamine B assay; type: functional
SNB-19 = assay: Growth inhibition of human SNB19 cells at 10 uM after 48 hrs by sulforhodamine B assay; type: functional
SK-MEL-2 = assay: Growth inhibition of human SK-MEL-2 cells at 10 uM after 48 hrs by sulforhodamine B assay; type: functional
MCF7 = assay: Growth inhibition of human MCF7 cells at 10 uM after 48 hrs by sulforhodamine B assay; type: functional; conditions: MCF7, 48 h, read-out: GI
MDA-MB-435 = assay: Growth inhibition of human MDA-MB-435 cells at 10 uM after 48 hrs by sulforhodamine B assay; type: functional
HL-60(TB) = assay: Growth inhibition of human HL-60(TB) cells at 10 uM after 48 hrs by sulforhodamine B assay; type: functional
HCT-15 = assay: Growth inhibition of human HCT15 cells at 10 uM after 48 hrs by sulforhodamine B assay; type: functional; conditions: HCT-15, 48 h, read-out: GI
SK-OV-3 = assay: Growth inhibition of human SKOV3 cells at 10 uM after 48 hrs by sulforhodamine B assay; type: functional
UACC-257 = assay: Growth inhibition of human UACC257 cells at 10 uM after 48 hrs by sulforhodamine B assay; type: functional
A549 = assay: Growth inhibition of human A549/ATCC cells at 10 uM after 48 hrs by sulforhodamine B assay; type: functional
SF-268 = assay: Growth inhibition of human SF268 cells at 10 uM after 48 hrs by sulforhodamine B assay; type: functional
PC-3 = assay: Growth inhibition of human PC3 cells at 10 uM after 48 hrs by sulforhodamine B assay; type: functional
SR = assay: Growth inhibition of human SR cells at 10 uM after 48 hrs by sulforhodamine B assay; type: functional; conditions: read-out: GI
SF-539 = assay: Growth inhibition of human SF539 cells at 10 uM after 48 hrs by sulforhodamine B assay; type: functional
RPMI-8226 = assay: Growth inhibition of human RPMI8226 cells at 10 uM after 48 hrs by sulforhodamine B assay; type: functional
786-0 = assay: Growth inhibition of human 786-0 cells at 10 uM after 48 hrs by sulforhodamine B assay; type: functional
M14 = assay: Growth inhibition of human M14 cells at 10 uM after 48 hrs by sulforhodamine B assay; type: functional; conditions: M14, 48 h, read-out: GI
SNB-75 = assay: Growth inhibition of human SNB75 cells at 10 uM after 48 hrs by sulforhodamine B assay; type: functional
NCI-H460 = assay: Growth inhibition of human NCI-H460 cells at 10 uM after 48 hrs by sulforhodamine B assay; type: functional
NCI/ADR-RES = assay: Growth inhibition of human NCI-ADR-RES cells at 10 uM after 48 hrs by sulforhodamine B assay; type: functional
NCI-H322M = assay: Growth inhibition of human NCI-H322M cells at 10 uM after 48 hrs by sulforhodamine B assay; type: functional; conditions: read-out: GI
Hs-578T = assay: Growth inhibition of human Hs 578T cells at 10 uM after 48 hrs by sulforhodamine B assay; type: functional
Malme-3M = assay: Growth inhibition of human MALME-3M cells at 10 uM after 48 hrs by sulforhodamine B assay; type: functional; conditions: read-out: GI
NCI-H23 = assay: Growth inhibition of human NCI-H23 cells at 10 uM after 48 hrs by sulforhodamine B assay; type: functional
LOX IMVI = assay: Growth inhibition of human LOXIMVI cells at 10 uM after 48 hrs by sulforhodamine B assay; type: functional
RXF 393 = assay: Growth inhibition of human RXF393 cells at 10 uM after 48 hrs by sulforhodamine B assay; type: functional
OVCAR-5 = assay: Growth inhibition of human OVCAR5 cells at 10 uM after 48 hrs by sulforhodamine B assay; type: functional
T47D = assay: Growth inhibition of human T47D cells at 10 uM after 48 hrs by sulforhodamine B assay; type: functional
HOP-62 = assay: Growth inhibition of human HOP62 cells at 10 uM after 48 hrs by sulforhodamine B assay; type: functional
SK-MEL-28 = assay: Growth inhibition of human SK-MEL-28 cells at 10 uM after 48 hrs by sulforhodamine B assay; type: functional, cell-based
UACC-62 = assay: Growth inhibition of human UACC62 cells at 10 uM after 48 hrs by sulforhodamine B assay; type: functional
HCC 2998 = assay: Growth inhibition of human HCC2998 cells at 10 uM after 48 hrs by sulforhodamine B assay; type: functional
IGROV-1 = assay: Growth inhibition of human IGROV1 cells at 10 uM after 48 hrs by sulforhodamine B assay; type: functional
MDA-MB-231 = assay: Growth inhibition of human MDA-MB-231 cells at 10 uM after 48 hrs by sulforhodamine B assay; type: functional
HT-29 = assay: Growth inhibition of human HT-29 cells at 10 uM after 48 hrs by sulforhodamine B assay; type: functional
OVCAR-3 = assay: Growth inhibition of human OVCAR3 cells at 10 uM after 48 hrs by sulforhodamine B assay; type: functional
NCI-H522 = assay: Growth inhibition of human NCI-H522 cells at 10 uM after 48 hrs by sulforhodamine B assay; type: functional
OVCAR-8 = assay: Growth inhibition of human OVCAR8 cells at 10 uM after 48 hrs by sulforhodamine B assay; type: functional; conditions: OVCAR-8, 48 h, read-out: GI
DU-145 = assay: Growth inhibition of human DU145 cells at 10 uM after 48 hrs by sulforhodamine B assay; type: functional
MOLT-4 = assay: Growth inhibition of human MOLT4 cells at 10 uM after 48 hrs by sulforhodamine B assay; type: functional; conditions: MOLT-4, 48 h, read-out: GI
KM12 = assay: Growth inhibition of human KM12 cells at 10 uM after 48 hrs by sulforhodamine B assay; type: functional
U-251 = assay: Growth inhibition of human U251 cells at 10 uM after 48 hrs by sulforhodamine B assay; type: functional
A498 = assay: Growth inhibition of human A498 cells at 10 uM after 48 hrs by sulforhodamine B assay; type: functional
ACHN = assay: Growth inhibition of human ACHN cells at 10 uM after 48 hrs by sulforhodamine B assay; type: functional
EKVX = assay: Growth inhibition of human EKVX cells at 10 uM after 48 hrs by sulforhodamine B assay; type: functional
CCRF-CEM = assay: Growth inhibition of human CCRF-CEM cells at 10 uM after 48 hrs by sulforhodamine B assay; type: functional
SN12C = assay: Growth inhibition of human SN12C cells at 10 uM after 48 hrs by sulforhodamine B assay; type: functional
OVCAR-4 = assay: Growth inhibition of human OVCAR4 cells at 10 uM after 48 hrs by sulforhodamine B assay; type: functional
SK-MEL-5 = assay: Growth inhibition of human SK-MEL-5 cells at 10 uM after 48 hrs by sulforhodamine B assay; type: functional
UO-31 = assay: Growth inhibition of human UO31 cells at 10 uM after 48 hrs by sulforhodamine B assay; type: functional; conditions: UO-31, 48 h, read-out: GI
SF-295 = assay: Growth inhibition of human SF295 cells at 10 uM after 48 hrs by sulforhodamine B assay; type: functional
HCT-116 = assay: Growth inhibition of human HCT116 cells at 10 uM after 48 hrs by sulforhodamine B assay; type: functional; conditions: HCT-116, 48 h, read-out: GI

NS(=O)(=O)c1cnccc1N1CCN(c2ccccc2F)CC1
growth inhibition (GI) (COLO 205): inactive
growth inhibition (GI) (SW-620): inactive
growth inhibition (GI) (TK-10): inactive
growth inhibition (GI) (BT-549): inactive
Ki (Carbonic anhydrase 9): 148 nM
inhibition of growth at 10 µM (CAKI-1): 3%
growth inhibition (GI) (NCI-H226): inactive
growth inhibition (GI) (SNB-19): inactive
growth inhibition (GI) (SK-MEL-2): inactive
inhibition of growth at 10 µM (MCF7): 6%
growth inhibition (GI) (MDA-MB-435): inactive
growth inhibition (GI) (HL-60(TB)): inactive
inhibition of growth at 10 µM (HCT-15): 1%
growth inhibition (GI) (SK-OV-3): inactive
growth inhibition (GI) (UACC-257): inactive
growth inhibition (GI) (A549): inactive
growth inhibition (GI) (SF-268): inactive
growth inhibition (GI) (PC-3): inactive
inhibition of growth at 10 µM (SR): 6%
growth inhibition (GI) (SF-539): inactive
growth inhibition (GI) (RPMI-8226): inactive
growth inhibition (GI) (786-0): inactive
inhibition of growth at 10 µM (M14): 5%
growth inhibition (GI) (SNB-75): inactive
growth inhibition (GI) (NCI-H460): inactive
growth inhibition (GI) (NCI/ADR-RES): inactive
inhibition of growth at 10 µM (NCI-H322M): 7%
growth inhibition (GI) (Hs-578T): inactive
inhibition of growth at 10 µM (Malme-3M): 4%
growth inhibition (GI) (NCI-H23): inactive
growth inhibition (GI) (LOX IMVI): inactive
growth inhibition (GI) (RXF 393): inactive
growth inhibition (GI) (OVCAR-5): inactive
growth inhibition (GI) (T47D): inactive
growth inhibition (GI) (HOP-62): inactive
growth inhibition (GI) (SK-MEL-28): inactive
growth inhibition (GI) (UACC-62): inactive
growth inhibition (GI) (HCC 2998): inactive
growth inhibition (GI) (IGROV-1): inactive
growth inhibition (GI) (MDA-MB-231): inactive
growth inhibition (GI) (HT-29): inactive
growth inhibition (GI) (OVCAR-3): inactive
growth inhibition (GI) (NCI-H522): inactive
inhibition of growth at 10 µM (OVCAR-8): 2%
growth inhibition (GI) (DU-145): inactive
inhibition of growth at 10 µM (MOLT-4): 2%
growth inhibition (GI) (KM12): inactive
growth inhibition (GI) (U-251): inactive
growth inhibition (GI) (A498): inactive
growth inhibition (GI) (ACHN): inactive
growth inhibition (GI) (EKVX): inactive
growth inhibition (GI) (CCRF-CEM): inactive
growth inhibition (GI) (SN12C): inactive
growth inhibition (GI) (OVCAR-4): inactive
growth inhibition (GI) (SK-MEL-5): inactive
inhibition of growth at 10 µM (UO-31): 13%
growth inhibition (GI) (SF-295): inactive
inhibition of growth at 10 µM (HCT-116): 3%

— ChEMBL document CHEMBL2434896, “Carbonic anhydrase inhibitors. Synthesis of heterocyclic 4-substituted pyridine-3-sulfonamide derivatives and their inhibition of the human cytosolic isozymes I and II and transmembrane tumor-associated isozymes IX and XII” (Eur J Med Chem, 2013)
